# Test results from US7662748B2, “Formulations comprising triazoles and alkoxylated amines” (Janssen Pharmaceutica, N.V., priority 2002, dated 2010).
# Columns and labels:
# Erisiphe graminis [1] = test: Fungicidal activity versus powdery mildew on wheat plants; format: in vivo, Erisiphe graminis on winter wheat plants, variety Corvus; details: propiconazole 0, ethoduomeen C/13 16 ppm a.i.; day 17; mean of 4 replicates
# Erisiphe graminis [2] = test: as above; format: in vivo, Erisiphe graminis on winter wheat plants, variety Corvus; details: day 17, mean of 4 replicates
# Description: • Test model: Winter wheat plants, variety Corvus, were sprayed with the test solutions till run off. Treated plants were incubated in the glasshouse and dusted with Erisiphe graminis conidia after drying. • Test solutions: • 1) aqueous solutions were prepared by diluting a commercial propiconazole formulation “Tilt® 250 EC” until spray solutions were obtained comprising 8, 16, 20, and 24 ppm of propiconazole. • 2) aqueous solutions were prepared comprising of 40, 80, 160, 320, 640, 1280, and 2560 ppm of N,N′,N′-tris(2-hydroxyethyl)-N-cocoalkyl-1,3-diamino-propane (i.e. ethoduomeen C/13). • 3) to aqueous solutions comprising 8 and 16 ppm of propiconazole an amount of “ethoduomeen C/13” was added yielding test solutions wherein the ratio of propiconazole over “ethoduomeen C/13” is 1/160, 1/80, 1/40, 1/20, 1/10 and 1/5.
# The commercial “Tilt® 250 EC” formulation comprises 25% (w/v) of propiconazole dissolved in an aromatic petroleum hydrocarbon liquid mixture.
# On day 17 after dusting the wheat plants with Erisiphe graminis the % inhibition of fungal growth was evaluated.
compound,measurement,setting,value
"N,N′,N′-tris(2-hydroxyethyl)-N-cocoalkyl-1,3-diamino-propane [ethoduomeen C/13]",% Fungicidal activity versus E. graminis,Erisiphe graminis [1],0%
same,% Fungicidal activity versus E. graminis,"Erisiphe graminis [2]; propiconazole 0, ethoduomeen C/13 40 ppm a.i.",0%
same,% Fungicidal activity versus E. graminis,"Erisiphe graminis [2]; propiconazole 0, ethoduomeen C/13 80 ppm a.i.",0%
same,% Fungicidal activity versus E. graminis,"Erisiphe graminis [2]; propiconazole 0, ethoduomeen C/13 320 ppm a.i.",0%
same,% Fungicidal activity versus E. graminis,"Erisiphe graminis [2]; propiconazole 0, ethoduomeen C/13 640 ppm a.i.",0%
same,% Fungicidal activity versus E. graminis,"Erisiphe graminis [2]; propiconazole 0, ethoduomeen C/13 1280 ppm a.i.",0%
same,% Fungicidal activity versus E. graminis,"Erisiphe graminis [2]; propiconazole 0, ethoduomeen C/13 2560 ppm a.i.",0%
"CCCC1COC(Cn2cncn2)(c2ccc(Cl)cc2Cl)O1 (centres unmarked) [propiconazole, 1-[[2-(2,4-dichlorophenyl)-4-propyl-1,3-dioxolan-2-yl]methyl]-1H -1,2,4-triazole]",% Fungicidal activity versus E. graminis,"Erisiphe graminis [2]; propiconazole 8 ppm a.i., ethoduomeen C/13 0",25%
same,% Fungicidal activity versus E. graminis,"Erisiphe graminis [2]; propiconazole 16 ppm a.i., ethoduomeen C/13 0",50%
same,% Fungicidal activity versus E. graminis,"Erisiphe graminis [2]; propiconazole 20 ppm a.i., ethoduomeen C/13 0",50%
same,% Fungicidal activity versus E. graminis,"Erisiphe graminis [2]; propiconazole 24 ppm a.i., ethoduomeen C/13 0",80%
